In series [1] the test system is PC12 cells. Kind of series: Cytotoxicity in PC12 cells (MTT assay). It is filed as cell-based. As to conditions: 3–50 μM, 24 h. On the procedure: The toxicity effect of the tested compounds on the rat pheochromocytoma (PC12) cells was examined according to previously reported methods. PC 12 cells was obtained from the Cell Bank of the Chinese Academy of Sciences (Shanghai, China) and routinely grown at 37 °C in a humidified incubator with 5% CO2 in Dulbecco’s modified Eagle’s medium (DMEM) supplemented with 10% bovine calf serum, 100 units per mL penicillin, and 100 units per mL of streptomycin. Cells were sub-cultured in 96-well plates at a seeding density of 5000 cells per well and allowed to adhere and grow. When cells reached the required confluence, they were placed into serum-free medium and treated with compound 5l. Twenty-four hours later the survival of cells was determined by MTT assay. Briefly, after incubation with 20 μL of MTT at 37 °C for 4 h, living cells containing MTT formazan crystals were solubilized in 200 μL DMSO. The absorbance of each well was measured using a microculture plate reader with a test wavelength of 570 nm and a reference wavelength of 630 nm. Results are expressed as the mean ± SD of three independent experiments.

In another series the target is brain AChE (Mus musculus, UniProt P21836). Particulars: mice, 10 μmol/kg i.p., sacrificed 10 min after administration.
The next series concerns the target T1, human AChE (Homo sapiens, UniProt P22303).
T1 construct: Acetylcholinesterase (E.C. 3.1.1.7) from electric eel and human erythrocytes; purchased Sigma-Aldrich (St. Louis, MO); host or cells: human erythrocytes
As to the kind of experiment: biochemical. Particulars: means ± SD of three experiments; read-out: IC50 hAChE.

For series [2], the target named is T2, Aβ (1–42) (Homo sapiens, UniProt P05067). Kind of series: Inhibition of Aβ (1–42) self-induced aggregation (Thioflavin T assay). Particulars: read-out: Aβ (1–42) aggregation inhibition (%).
Another series concerns the target EeAChE (Electrophorus electricus, UniProt O42275). Kind of series: Kinetic analysis of AChE inhibition (Lineweaver–Burk plots). Particulars: 5l at 30.0, 15.0 and 7.5 nM.
Another series deals with T3, AChE (from electric eel) (Electrophorus electricus, UniProt O42275).
T3 construct: Acetylcholinesterase (E.C. 3.1.1.7) from electric eel and human erythrocytes; purchased Sigma-Aldrich (St. Louis, MO); host or cells: electric eel (natural source)
Kind of series: biochemical. Particulars: means ± SD of three experiments; read-out: IC50 eeAChE.

The next series can be described thus: in vitro. Also on record: Papp at 16 h: dose or concentration left out as unconfirmed. As to conditions: for Papp at 16 h: PAMPA. As for the experimental part:
Commercial drugs were purchased from Sigma (St. Louis, MO) and Alfa Aesar (Haverhill, MA). The porcine brain lipid (PBL) was obtained from Avanti Polar Lipids (Alabaster, AL). The donor microplate (PVDF membrane, pore size […]) and the acceptor microplate were both from Millipore (Darmstadt, Germany). The 96-well UV plate (COSTAR^@) was from Corning Incorporated (Harrodsburg, KY). The acceptor 96-well microplate was filled with 300 μL of PBS/EtOH (7:3), and the filter membrane was impregnated with 4 μL of PBL in dodecane (20 mg/mL). […] The […] was carefully placed on the donor plate to form a sandwich, which was left undisturbed for 16 h at 25 °C. After incubation, the donor plate was carefully removed and the concentration of compound in the acceptor wells was determined using an UV plate reader (Flexstation^@ 3). Every sample was analyzed at five wavelengths, in four wells, in at least three independent runs, and the results are given as the mean ± SD. In each experiment, nine quality control standards of known BBB permeability were included to validate the analysis set.
Background: The PAMPA barrier holds no transporters, so it reflects passive diffusion.

For series [3], the target named is T2, Aβ (1–42). As to the kind of experiment: Inhibition of Cu^2+-induced Aβ (1–42) aggregation (ThT assay). It is filed as biochemical. Particulars: read-out: Inhibition of Cu^2+-induced Aβ aggregation. As for the experimental part:
The mixture of the peptide (10 μL, 25 μM, final concentration) with or without copper (10 μL, 25 μM, final concentration) and the test compound (10 μL, 50 μM, final concentration) were incubated at 37 °C for 24 h. The 20 μL of the sample was diluted to a final volume of 200 μL with […] glycine–NaOH buffer (pH 8.0) containing ThT (5 μM). The detection method was the same as that of self-induced Aβ aggregation experiment.

The subject of series [4] is PC12 cells. As to the kind of experiment: Neuroprotection against Aβ (1–42)-induced toxicity in PC12 cells (MTT assay). It is filed as cell-based. Particulars: Rattus norvegicus, PC-12, Aβ (1–42) 25 μM, 24 h, Aβ alone 44.2%, read-out: Cell viability (% of control) with Aβ (1–42). On the procedure: PC 12 cells were grown in RPMI-1640 medium containing 10% (v/v) foetal bovine serum, 100 U penicillin/mL and […] streptomycin/mL under 5% CO2 at 37 °C. The culture media were changed every other day. After pretreatment with different concentrations of test compound (0, 6, 12.5, 25, 50 μM) for 2 h, PC 12 cells were incubated with 25 μM of Aβ (1–42) for 24 h. The cell viability was evaluated using MTT assay. Briefly, the cells were treated with 10 μL MTT (5 mg/mL in PBS) for 4 h at 37 °C. Then, 200 μL of DMSO was added to dissolve the dark blue formazan crystals formed in intact cells, and the absorbance at 570 nm was detected by a microplate reader. PC12 cells were cultured without test compound or Aβ (1–42) as control group and the results were expressed by percentage of control.
In general terms: Tetrazolium assays rely on reduction of a dye to a coloured formazan, in cell work by metabolically active cells.

The target of series [5] is T4, BuChE (from equine serum) (Equus caballus, UniProt P81908).
T4 construct: butyrylcholinesterase (BuChE, E.C. 3.1.1.8) from equine serum and human serum; purchased Sigma-Aldrich (St. Louis, MO); host or cells: equine serum
Kind of series: biochemical. It is filed as biochemical. Particulars: IC50 eqBuChE, means ± SD of three experiments.

The conditions of series [6]: PAMPA-BBB literature value; cited from earlier work.

“And” between values parts separate entries of the source, which are not always exact repeats. Equal values may be shown once.

T2 sequence (P05067 672-713): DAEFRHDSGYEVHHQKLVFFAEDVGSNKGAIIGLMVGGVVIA
T4 sequence (P81908 whole entry): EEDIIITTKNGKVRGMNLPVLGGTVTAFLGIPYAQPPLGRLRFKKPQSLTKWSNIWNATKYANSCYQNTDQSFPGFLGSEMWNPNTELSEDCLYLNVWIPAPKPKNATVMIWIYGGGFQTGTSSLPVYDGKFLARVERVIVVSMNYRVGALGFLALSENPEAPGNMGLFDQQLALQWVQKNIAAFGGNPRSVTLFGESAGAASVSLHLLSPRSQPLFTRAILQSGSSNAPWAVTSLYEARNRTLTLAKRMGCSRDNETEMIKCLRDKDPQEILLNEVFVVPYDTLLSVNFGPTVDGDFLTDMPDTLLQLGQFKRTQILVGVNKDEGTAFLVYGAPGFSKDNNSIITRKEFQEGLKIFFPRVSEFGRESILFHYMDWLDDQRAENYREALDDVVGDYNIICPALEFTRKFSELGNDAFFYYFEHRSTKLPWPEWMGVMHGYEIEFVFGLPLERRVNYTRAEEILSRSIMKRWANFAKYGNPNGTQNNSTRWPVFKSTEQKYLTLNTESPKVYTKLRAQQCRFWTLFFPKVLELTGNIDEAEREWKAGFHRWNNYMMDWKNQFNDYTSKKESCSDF
T1 sequence (P22303 other isoform, or with tags, fused parts or gaps): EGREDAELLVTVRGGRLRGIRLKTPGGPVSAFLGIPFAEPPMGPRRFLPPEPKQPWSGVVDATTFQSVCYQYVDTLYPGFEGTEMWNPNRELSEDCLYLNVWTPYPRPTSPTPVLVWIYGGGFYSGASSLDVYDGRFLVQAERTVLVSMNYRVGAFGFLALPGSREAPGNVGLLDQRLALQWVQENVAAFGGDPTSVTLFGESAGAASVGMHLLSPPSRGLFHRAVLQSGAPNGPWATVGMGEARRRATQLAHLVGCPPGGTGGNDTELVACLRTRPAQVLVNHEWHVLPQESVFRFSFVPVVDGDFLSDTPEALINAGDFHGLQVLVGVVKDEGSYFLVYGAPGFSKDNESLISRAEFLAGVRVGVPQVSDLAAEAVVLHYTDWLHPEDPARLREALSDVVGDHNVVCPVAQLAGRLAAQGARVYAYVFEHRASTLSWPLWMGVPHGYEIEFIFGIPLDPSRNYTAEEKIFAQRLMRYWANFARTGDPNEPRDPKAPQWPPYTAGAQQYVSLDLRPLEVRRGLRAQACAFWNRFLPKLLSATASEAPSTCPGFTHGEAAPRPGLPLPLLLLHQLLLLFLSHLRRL
T3 sequence (O42275 24-633): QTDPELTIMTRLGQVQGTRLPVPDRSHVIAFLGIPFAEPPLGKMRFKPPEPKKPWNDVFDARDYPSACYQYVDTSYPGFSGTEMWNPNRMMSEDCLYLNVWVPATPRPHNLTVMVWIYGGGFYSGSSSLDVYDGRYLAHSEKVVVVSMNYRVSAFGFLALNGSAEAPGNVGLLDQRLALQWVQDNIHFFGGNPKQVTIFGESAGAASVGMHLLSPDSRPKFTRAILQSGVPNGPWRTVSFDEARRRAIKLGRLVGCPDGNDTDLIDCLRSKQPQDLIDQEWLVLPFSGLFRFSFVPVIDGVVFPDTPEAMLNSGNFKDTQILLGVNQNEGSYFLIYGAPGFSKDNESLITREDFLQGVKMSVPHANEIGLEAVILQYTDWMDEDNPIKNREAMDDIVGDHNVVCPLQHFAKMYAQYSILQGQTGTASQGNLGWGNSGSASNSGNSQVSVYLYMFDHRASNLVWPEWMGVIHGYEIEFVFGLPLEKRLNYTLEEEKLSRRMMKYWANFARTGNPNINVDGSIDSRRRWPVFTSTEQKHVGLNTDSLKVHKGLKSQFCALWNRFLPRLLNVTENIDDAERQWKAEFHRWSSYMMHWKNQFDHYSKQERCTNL
Sequence of EeAChE (O42275 24-633): as above
Sequence of brain AChE (P21836 32-614): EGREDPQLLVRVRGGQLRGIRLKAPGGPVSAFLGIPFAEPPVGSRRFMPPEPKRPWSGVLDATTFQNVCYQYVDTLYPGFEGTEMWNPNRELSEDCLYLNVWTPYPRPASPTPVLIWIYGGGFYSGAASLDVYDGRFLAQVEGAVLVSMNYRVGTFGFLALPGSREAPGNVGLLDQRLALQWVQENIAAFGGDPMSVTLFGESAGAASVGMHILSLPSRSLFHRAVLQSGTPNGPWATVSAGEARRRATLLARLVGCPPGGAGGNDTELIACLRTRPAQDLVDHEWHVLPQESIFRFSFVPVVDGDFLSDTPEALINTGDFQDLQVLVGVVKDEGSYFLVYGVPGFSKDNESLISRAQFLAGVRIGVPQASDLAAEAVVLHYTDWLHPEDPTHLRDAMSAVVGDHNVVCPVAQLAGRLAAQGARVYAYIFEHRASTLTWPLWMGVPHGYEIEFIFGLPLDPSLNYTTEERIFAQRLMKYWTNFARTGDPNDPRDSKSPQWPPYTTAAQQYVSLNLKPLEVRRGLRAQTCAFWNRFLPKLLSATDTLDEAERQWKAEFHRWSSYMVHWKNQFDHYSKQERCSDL

With `COc1ccc(/C=C/C(=O)Nc2cc[n+](Cc3ccc(F)cc3)cc2)cc1OC.[Br-]` [Compound 5l, (E)-4-(3-(3,4-dimethoxyphenyl)acrylamido)-1-(4-fluorobenzyl) pyridin-1-ium bromide], the “ABTS assay (trolox equiv)” value was “N (N means <0.05)”. The “Effect on cell viability (toxicity)” value in the series on PC12 cells [1] was “did not significantly affect cell viability”. On brain AChE, the “Inhibition (%) of brain AChE activity versus untreated controls” value worked out at 53.9 ± 2.9%. Further, the IC50 – broadly, the midpoint of a concentration-inhibition curve – at human AChE was determined as 0.0086 ± 0.0009 µM. For the same molecule, on Aβ (1–42) [2], the inhibition (commonly the drop in the measured response relative to a control, in per cent) at 20 µM is 64.7 ± 1.6%. Further, the “Type of AChE inhibition” value at EeAChE is on record as “mixed-type inhibitor”. For the same molecule, at AChE (from electric eel), the IC50 was 0.0121 ± 0.0018 µM. Besides, the Papp (in general, a coefficient for how fast a substance crosses the barrier) at 16 h in the series “in vitro” came to 2.89 ± 0.37 ×10⁻⁶ cm/s. Also, the “BBB permeation prediction class” value in “in vitro” (PAMPA-BBB) is “CNS+”. The inhibition at 50 µM at Aβ (1–42) [3] came to 68.6%. Also, in the series on PC12 cells [4] (6 μM compound), the viability (commonly a read-out of living cells in per cent, often relative to untreated cells) at 6 µM was 47.6 ± 4.2%. The viability at 12.5 µM in the series on PC12 cells [4] (12.5 μM compound) came out at 57.5 ± 1.4%. Moreover, the viability at 25 µM with PC12 cells [4] (25 μM compound) came out at 63.2 ± 3.5%. Moreover, the viability at 50 µM in the series on PC12 cells [4] (50 μM compound) is 66.6 ± 2.5%. Further, in [5], the IC50 is 2.5 µM and 2.6 µM.

For the molecule `NCCc1ccc(O)c(O)c1` [Dopamine, reference compound], the “Permeability Pe, Bibl” value in series [6] is 0.2 ×10⁻⁶ cm/s. Further, the Papp at 16 h in “in vitro” was found to be 0.17 ×10⁻⁶ cm/s.

The values above are taken from article PMC6009898 (Journal of Enzyme Inhibition and Medicinal Chemistry, 2017).
